Measurements reported in paper PMC10001106, “A New Bloody Pulp Selection of Myrobalan (Prunus cerasifera L.): Pomological Traits, Chemical Composition, and Nutraceutical Properties” (Foods, 2023).

Columns and labels:
Settings in all cases: mean ± SD, n = 3
[1] = ABTS radical scavenging test
Experimental: (§1) All the procedures were previously detailed. The Relative Antioxidant Capacity Index (RACI) was applied to evaluate the sample characterized by the highest activity. Linear regression, assessment of repeatability, calculation of average, relative standard deviation (SD), and Pearson’s correlation coefficient (r) were calculated by using Microsoft Excel 2010 software (Redmond, WA, USA). The results were expressed as the means of three different experiments ± SD.

[2] = DPPH radical scavenging test
Experimental: as §1

[3] = β-carotene bleaching test
Experimental: as §1

| Structure (SMILES) | ABTS Test (IC50) [1] [µg/mL] | DPPH Test (IC50) [2] [µg/mL] | β-Carotene Bleaching Test (IC50) [3] [µg/mL] |
| --- | --- | --- | --- |
| O=C1O[C@H]([C@@H](O)CO)C(O)=C1O [Ascorbic acid] | 1.72 ± 0.14 | 5.04 ± 0.81 |  |
| CCCOC(=O)c1cc(O)c(O)c(O)c1 [Propyl gallate] |  |  | 0.09 ± 0.04 |
